Assay results: ChEMBL document CHEMBL1201862, “PubChem BioAssay data set” (2004)
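Method: 48-hour compound exposure of cells in 96-well plates, five concentrations, linear interpolation of endpoints. The concentration for 50% growth inhibition is given as GI50.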 The source made the active and inactive calls. Rule as the data show it: active = GI50 up to about 1.1 µM and inactive = higher.

Key:
Assay in all cases: inhibition of tumour cell growth, NCI panel, 48 h
[1] = test system: M14
[2] = test system: SK-OV-3
[3] = test system: MDA-N
[4] = test system: UACC-257
[5] = test system: SK-MEL-2
[6] = test system: NCI-H23
[7] = test system: SNB-19
[8] = test system: RPMI-8226
[9] = test system: K562
[10] = test system: RXF 393
[11] = test system: DU-145
[12] = test system: CAKI-1
[13] = test system: OVCAR-8
[14] = test system: SK-MEL-28
[15] = test system: HOP-62
[16] = test system: MOLT-4
[17] = test system: UO-31
[18] = test system: HCT-116
[19] = test system: HCC 2998
[20] = test system: TK-10
[21] = test system: NCI/ADR-RES
[22] = test system: LOX IMVI
[23] = test system: T47D
[24] = test system: SF-295
[25] = test system: OVCAR-4
[26] = test system: NCI-H460
[27] = test system: MDA-MB-435
[28] = test system: IGROV-1
[29] = test system: BT-549
[30] = test system: SK-MEL-5
[31] = test system: A549
[32] = test system: U-251
[33] = test system: Malme-3M
[34] = test system: PC-3
[35] = test system: SNB-75
[36] = test system: COLO 205
[37] = test system: MCF7
[38] = test system: ACHN
[39] = test system: NCI-H522
[40] = test system: EKVX
[41] = test system: SF-539
[42] = test system: OVCAR-5
[43] = test system: Hs-578T
[44] = test system: SN12C
[45] = test system: OVCAR-3
[46] = test system: HOP-92
[47] = test system: SF-268
[48] = test system: MDA-MB-231
[49] = test system: HT-29
[50] = test system: A498
[51] = test system: NCI-H226
[52] = test system: SR
[53] = test system: HCT-15
[54] = test system: HL-60
[55] = test system: SW-620
[56] = test system: 786-0
[57] = test system: UACC-62
[58] = test system: CCRF-CEM
[59] = test system: KM12

With COC(=O)/C(C#N)=C(/NCc1ccccc1)Nc1ccccc1 the GI50 [1] was 42.4 µM (inactive), the GI50 [2] was > 100 µM (inactive) and the GI50 [3] was 46.9 µM (inactive). The GI50 [4] was 82.8 µM (inactive), the GI50 [5] was > 100 µM (inactive) and the GI50 [6] was > 100 µM (inactive). The GI50 [7] was > 100 µM (inactive), the GI50 [8] was 48.9 µM (inactive) and the GI50 [9] was 46.1 µM (inactive). The GI50 [10] was > 100 µM (inactive), the GI50 [11] was > 100 µM (inactive) and the GI50 [12] was > 100 µM (inactive). The GI50 [13] was > 100 µM (inactive), the GI50 [14] was > 100 µM (inactive) and the GI50 [15] was > 100 µM (inactive). For the same compound, the GI50 [16] was 30.1 µM (inactive), the GI50 [17] was 37.6 µM (inactive) and the GI50 [18] was 63 µM (inactive). For the same compound, the GI50 [19] was > 100 µM (inactive), the GI50 [20] was > 100 µM (inactive) and the GI50 [21] was 51.1 µM (inactive). For the same compound, the GI50 [22] was 61.2 µM (inactive), the GI50 [23] was 79.3 µM (inactive) and the GI50 [24] was 46.1 µM (inactive). The GI50 [25] was 91 µM (inactive), the GI50 [26] was 77.4 µM (inactive) and the GI50 [27] was > 100 µM (inactive). The GI50 [28] was > 100 µM (inactive), the GI50 [29] was > 100 µM (inactive) and the GI50 [30] was 64 µM (inactive). For the same compound, the GI50 [31] was 45.1 µM (inactive), the GI50 [32] was > 100 µM (inactive) and the GI50 [33] was > 100 µM (inactive). For the same compound, the GI50 [34] was 46 µM (inactive), the GI50 [35] was 37.3 µM (inactive) and the GI50 [36] was 73.1 µM (inactive). For the same compound, the GI50 [37] was > 100 µM (inactive), the GI50 [38] was > 100 µM (inactive) and the GI50 [39] was 55.7 µM (inactive). For the same compound, the GI50 [40] was 50.9 µM (inactive), the GI50 [41] was > 100 µM (inactive) and the GI50 [42] was > 100 µM (inactive). For the same compound, the GI50 [43] was 68.5 µM (inactive), the GI50 [44] was > 100 µM (inactive) and the GI50 [45] was 72.3 µM (inactive). For the same compound, the GI50 [46] was 81.7 µM (inactive), the GI50 [47] was > 100 µM (inactive) and the GI50 [48] was 69.7 µM (inactive). The GI50 [49] was 87.7 µM (inactive), the GI50 [50] was > 100 µM (inactive) and the GI50 [51] was > 100 µM (inactive). The GI50 [52] was 53.8 µM (inactive), the GI50 [53] was 83.2 µM and the GI50 [54] was 27.8 µM (inactive). The GI50 [55] was > 100 µM (inactive) and the GI50 [56] was 92.5 µM (inactive).
With N#CC(NCc1cccc(CNC(C#N)c2ccccc2)c1)c1ccccc1 (centres undefined) the GI50 [1] was 26.1 µM (inactive), the GI50 [2] was > 100 µM (inactive) and the GI50 [57] was 65.2 µM (inactive). The GI50 [3] was 37.2 µM (inactive), the GI50 [4] was 59.6 µM (inactive) and the GI50 [5] was > 100 µM (inactive). For the same compound, the GI50 [6] was > 100 µM (inactive), the GI50 [7] was 64.4 µM (inactive) and the GI50 [8] was 21.1 µM (inactive). For the same compound, the GI50 [9] was 17.1 µM (inactive), the GI50 [10] was 60.4 µM (inactive) and the GI50 [11] was > 100 µM (inactive). The GI50 [12] was > 100 µM (inactive), the GI50 [13] was 67 µM (inactive) and the GI50 [14] was 18.1 µM (inactive). The GI50 [15] was > 100 µM (inactive), the GI50 [16] was 16 µM (inactive) and the GI50 [17] was 94.4 µM (inactive). The GI50 [18] was 23.8 µM (inactive), the GI50 [19] was 14.9 µM (inactive) and the GI50 [20] was 46.2 µM (inactive). For the same compound, the GI50 [21] was > 100 µM (inactive), the GI50 [22] was 15 µM (inactive) and the GI50 [23] was 48.6 µM (inactive). The GI50 [24] was 18.7 µM (inactive), the GI50 [25] was 56 µM (inactive) and the GI50 [27] was 99.8 µM (inactive). For the same compound, the GI50 [28] was 18.1 µM (inactive), the GI50 [29] was 24.7 µM (inactive) and the GI50 [58] was 18.1 µM (inactive). The GI50 [30] was 42.3 µM (inactive), the GI50 [31] was 28.7 µM (inactive) and the GI50 [32] was 31.1 µM (inactive). The GI50 [33] was 26.9 µM (inactive), the GI50 [34] was 42.9 µM (inactive) and the GI50 [35] was 28.9 µM (inactive). The GI50 [36] was 19.5 µM (inactive), the GI50 [37] was 19.3 µM (inactive) and the GI50 [38] was > 100 µM (inactive). The GI50 [39] was 40.3 µM (inactive), the GI50 [40] was 60 µM (inactive) and the GI50 [41] was 0.0261 µM (active). The GI50 [42] was > 100 µM (inactive), the GI50 [43] was 32.8 µM (inactive) and the GI50 [44] was 77.8 µM (inactive). For the same compound, the GI50 [45] was > 100 µM (inactive), the GI50 [46] was 34.3 µM (inactive) and the GI50 [47] was 52.1 µM (inactive). The GI50 [48] was 26.2 µM (inactive), the GI50 [49] was 16.4 µM (inactive) and the GI50 [50] was > 100 µM (inactive). For the same compound, the GI50 [51] was > 100 µM (inactive), the GI50 [52] was 25.8 µM (inactive) and the GI50 [53] was 25.8 µM. The GI50 [59] was 22.3 µM (inactive), the GI50 [54] was 20.7 µM (inactive) and the GI50 [55] was 24.5 µM (inactive). The GI50 [56] was 35.6 µM (inactive).
